What follows are compounds tested against T1, Nav1.7 (or SCN9A) channel; HEK cells stably transfected with hSCN9A (Homo sapiens, UniProt Q15858) (assay: Nav1.7 block, PatchXpress 7000 automated whole-cell voltage clamp, estimated IC50 (EIC50)). Conditions: PatchXpress platform; hSCN9A HEK cells held at V1/2 of inactivation; estimated IC50.
T1 construct: expressed in transfected cells
Format: cell-based

T1 sequence (Q15858 whole entry): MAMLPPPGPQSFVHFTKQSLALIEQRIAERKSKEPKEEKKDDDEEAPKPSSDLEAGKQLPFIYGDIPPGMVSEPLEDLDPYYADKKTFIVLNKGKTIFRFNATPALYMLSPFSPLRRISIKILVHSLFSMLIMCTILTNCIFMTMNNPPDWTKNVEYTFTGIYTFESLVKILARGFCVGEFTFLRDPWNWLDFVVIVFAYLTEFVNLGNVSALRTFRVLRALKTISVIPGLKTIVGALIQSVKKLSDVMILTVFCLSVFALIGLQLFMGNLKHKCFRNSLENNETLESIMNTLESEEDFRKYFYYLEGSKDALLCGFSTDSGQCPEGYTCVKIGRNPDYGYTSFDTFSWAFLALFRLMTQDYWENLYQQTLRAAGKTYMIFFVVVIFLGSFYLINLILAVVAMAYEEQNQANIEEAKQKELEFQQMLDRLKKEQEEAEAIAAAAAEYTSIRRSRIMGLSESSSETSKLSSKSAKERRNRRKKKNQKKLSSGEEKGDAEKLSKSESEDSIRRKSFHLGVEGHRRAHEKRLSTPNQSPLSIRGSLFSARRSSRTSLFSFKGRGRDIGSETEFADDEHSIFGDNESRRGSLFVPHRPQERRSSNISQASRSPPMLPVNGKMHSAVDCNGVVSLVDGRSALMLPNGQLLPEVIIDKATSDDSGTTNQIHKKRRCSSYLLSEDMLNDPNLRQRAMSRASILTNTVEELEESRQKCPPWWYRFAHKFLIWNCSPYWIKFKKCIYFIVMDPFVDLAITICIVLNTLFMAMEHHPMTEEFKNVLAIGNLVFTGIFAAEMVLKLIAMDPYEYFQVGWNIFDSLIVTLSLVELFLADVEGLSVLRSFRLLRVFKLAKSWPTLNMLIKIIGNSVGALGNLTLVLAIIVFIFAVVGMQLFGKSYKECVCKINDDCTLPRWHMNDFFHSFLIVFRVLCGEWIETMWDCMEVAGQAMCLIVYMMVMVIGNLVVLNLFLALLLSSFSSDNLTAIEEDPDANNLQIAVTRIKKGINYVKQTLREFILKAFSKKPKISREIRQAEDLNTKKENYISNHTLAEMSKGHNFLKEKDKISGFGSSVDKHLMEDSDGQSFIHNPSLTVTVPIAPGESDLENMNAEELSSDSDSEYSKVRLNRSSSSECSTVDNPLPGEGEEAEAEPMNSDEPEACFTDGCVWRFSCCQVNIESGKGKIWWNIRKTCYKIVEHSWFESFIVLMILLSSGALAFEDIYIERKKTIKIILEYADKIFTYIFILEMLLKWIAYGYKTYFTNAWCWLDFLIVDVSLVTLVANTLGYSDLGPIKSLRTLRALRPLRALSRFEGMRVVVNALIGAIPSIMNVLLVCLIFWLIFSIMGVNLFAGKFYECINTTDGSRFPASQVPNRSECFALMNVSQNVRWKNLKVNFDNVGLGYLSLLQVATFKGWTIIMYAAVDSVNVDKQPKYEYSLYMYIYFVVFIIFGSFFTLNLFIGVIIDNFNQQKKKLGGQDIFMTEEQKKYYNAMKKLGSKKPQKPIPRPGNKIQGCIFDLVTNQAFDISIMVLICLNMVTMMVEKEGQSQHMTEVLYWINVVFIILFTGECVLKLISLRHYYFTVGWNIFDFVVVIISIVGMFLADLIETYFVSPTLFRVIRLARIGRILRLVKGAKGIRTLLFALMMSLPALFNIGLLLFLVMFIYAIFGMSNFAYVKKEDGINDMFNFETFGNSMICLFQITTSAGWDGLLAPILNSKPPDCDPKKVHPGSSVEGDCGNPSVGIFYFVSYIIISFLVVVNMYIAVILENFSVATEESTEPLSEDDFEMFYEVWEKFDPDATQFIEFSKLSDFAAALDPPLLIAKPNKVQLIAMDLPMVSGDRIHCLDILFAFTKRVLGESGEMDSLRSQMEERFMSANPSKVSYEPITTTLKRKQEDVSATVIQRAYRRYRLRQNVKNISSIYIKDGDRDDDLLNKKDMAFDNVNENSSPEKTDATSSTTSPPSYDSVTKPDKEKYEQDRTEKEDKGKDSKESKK

Row | IC50 | Structure (SMILES)
1 | 450 nM | N#Cc1cc(S(=O)(=O)Nc2ncns2)ccc1Oc1ccc(F)cc1-c1ccnn1CC(F)(F)F [Example 26, 3-cyano-4-(4-fluoro-2-(1-(2,2,2-trifluoroethyl)-1H-pyrazol-5-yl)phenoxy)-N-(1,2,4-thiadiazol-5-yl)benzenesulfonamide]
2 | 230 nM | CCOC(=O)Cn1nccc1-c1cc(Cl)ccc1Oc1ccc(S(=O)(=O)Nc2ncns2)cc1C#N [Example 29, ethyl 2-(5-(2-(4-(N-1,2,4-thiadiazol-5-ylsulfamoyl)-2-cyanophenoxy)-5-chlorophenyl)-1H-pyrazol-1-yl)acetate]
3 | 480 nM | O=S(=O)(Nc1ncns1)c1ccc(Oc2ccccc2-c2ccccc2)c(F)c1F [Example 269, 4-(biphenyl-2-yloxy)-2,3-difluoro-N-1,2,4-thiadiazol-5-ylbenzenesulfonamide]
4 | 2780 nM | Cc1cc(C)n(-c2ccc(Oc3ccc(S(=O)(=O)Nc4nccs4)cc3F)cc2)n1 [Example 248, 4-[4-(3,5-dimethyl-pyrazol-1-yl)-phenoxy]-3-fluoro-N-thiazol-2-yl-benzenesulfonamide]
5 | 60 nM | N#Cc1cc(S(=O)(=O)Nc2nccs2)ccc1Oc1ccc(F)cc1-c1cccc(CCO)c1 [Example 153, 3-cyano-4-{[5-fluoro-3′-(2-hydroxyethyl)biphenyl-2-yl]oxy}-N-1,3-thiazol-2-ylbenzenesulfonamide]
6 | 1980 nM | CC(C)(C)n1nc(Cc2ccc(Cl)cc2)cc1Oc1ccc(S(=O)(=O)Nc2nccs2)cc1F [Example 240, 4-[2-tert-butyl-5-(4-chloro-benzyl)-2H-pyrazol-3-yloxy]-3-fluoro-N-thiazol-2-yl-benzenesulfonamide]
7 | 2180 nM | N#Cc1cc(S(=O)(=O)Nc2ncns2)ccc1Oc1cc(Cc2ccc(Cl)cc2)nn1CCO [Example 94, 4-{[3-(4-chlorobenzyl)-1-(2-hydroxyethyl)-1H-pyrazol-5-yl]oxy}-3-cyano-N-1,2,4-thiadiazol-5-ylbenzenesulfonamide]
8 | 1580 nM | Cc1csc(NS(=O)(=O)c2ccc(Oc3ccccc3-c3ccccc3)c(C#N)c2)n1 [Example 101, 4-(biphenyl-2-yloxy)-3-cyano-N-(4-methyl-1,3-thiazol-2-yl)benzenesulfonamide]
9 | 780 nM | Cc1ccc(Oc2ccc(S(=O)(=O)Nc3ncns3)cc2C#N)c(-c2c(C)cnn2C)c1 [Example 27, 3-cyano-4-(2-(1,4-dimethyl-1H-pyrazol-5-yl)-4-methylphenoxy)-N-(1,2,4-thiadiazol-5-yl)benzenesulfonamide]
10 | 130 nM | COc1cccc(-c2cc(F)ccc2Oc2ccc(S(=O)(=O)Nc3nccs3)cc2C#N)c1 [Example 154, 3-cyano-4-[(5-fluoro-3′-methoxybiphenyl-2-yl)oxy]-N-1,3-thiazol-2-ylbenzenesulfonamide]
11 | >10000 nM | N#Cc1cc(S(=O)(=O)Nc2nccs2)ccc1Oc1ccccc1-c1ccno1 [Example 174, 3-cyano-4-(2-(isoxazol-5-yl)phenoxy)-N-(thiazol-2-yl)benzenesulfonamide]
12 | 590 nM | O=S(=O)(Nc1nccs1)c1ccc(Oc2ccc(-c3ccccc3)cc2)cc1F [Example 209, 4-(biphenyl-4-yloxy)-2-fluoro-N-(thiazol-2-yl)benzenesulfonamide]

Same assay, conditions: estimated IC50; hSCN9A HEK cells, PatchXpress platform; Examples 283-814

Row | IC50 | Structure (SMILES)
13 | >3000 nM | Cc1nnc(-c2ccc(Oc3ccc(S(=O)(=O)Nc4ccc(F)cn4)cc3C#N)cc2)o1 [Example 576, 3-cyano-N-(5-fluoropyridin-2-yl)-4-[4-(5-methyl-1,3,4-oxadiazol-2-yl)phenoxy]benzenesulfonamide]
14 | 300 nM | N#Cc1cc(S(=O)(=O)Nc2cscn2)ccc1Oc1ccc(OC(F)(F)F)cc1-c1cn[nH]c1 [Example 599, 3-cyano-4-[2-(1H-pyrazol-4-yl)-4-(trifluoromethoxy)phenoxy]-N-1,3-thiazol-4-ylbenzenesulfonamide]
15 | 0.9 nM | O=S(=O)(Nc1ncns1)c1cc(F)c(Oc2cc(F)c(Cl)cc2-c2cn[nH]c2)cc1F [Example 757, 4-[4-chloro-5-fluoro-2-(1H-pyrazol-4-yl)phenoxy]-2,5-difluoro-N-1,2,4-thiadiazol-5-ylbenzenesulfonamide]
16 | 400 nM | CCn1nc(C(F)(F)F)cc1-c1ccc(Oc2ncc(S(=O)(=O)Nc3nccs3)cc2C#N)cc1 [Example 740, 5-cyano-6-{4-[1-ethyl-3-(trifluoromethyl)-1H-pyrazol-5-yl]phenoxy}-N-1,3-thiazol-2-ylpyridine-3-sulfonamide]
17 | 27 nM | O=S(=O)(Nc1ncns1)c1cc(F)c(Oc2ccc(C(F)(F)F)cc2C2CCOCC2)cc1F [Example 633, 2,5-difluoro-4-[2-(tetrahydro-2H-pyran-4-yl)-4-(trifluoromethyl)phenoxy]-N-1,2,4-thiadiazol-5-ylbenzenesulfonamide]
18 | 88 nM | CC(C)(C)n1nccc1-c1cc(Cl)ccc1Oc1ccc(S(=O)(=O)Nc2ncns2)cc1C#N [Example 775, 4-[2-(1-tert-butyl-1H-pyrazol-5-yl)-4-chlorophenoxy]-3-cyano-N-1,2,4-thiadiazol-5-ylbenzenesulfonamide]
19 | 490 nM | COc1cc(-c2cc(Cl)ccc2Oc2ccc(S(=O)(=O)Nc3nccs3)cc2C#N)n(C)n1 [Example 439, 4-[4-chloro-2-(3-methoxy-1-methyl-1H-pyrazol-5-yl)phenoxy]-3-cyano-N-1,3-thiazol-2-ylbenzenesulfonamide]
20 | 45 nM | Cc1n[nH]cc1-c1cc(Cl)ccc1Oc1ccc(S(=O)(=O)Nc2nccs2)cc1F [Example 749, 4-[4-chloro-2-(3-methyl-1H-pyrazol-4-yl)phenoxy]-3-fluoro-N-1,3-thiazol-2-ylbenzenesulfonamide]
21 | 1300 nM | O=S(=O)(Nc1cscn1)c1cc(Cl)c(Oc2ccc(Cl)cc2-c2cnn[nH]2)cc1F [Example 777, 5-chloro-4-[4-chloro-2-(1H-1,2,3-triazol-5-yl)phenoxy]-2-fluoro-N--thiazol-4-ylbenzenesulfonamide]
22 | 1100 nM | COc1cccc(-c2cc(Oc3ccc(S(=O)(=O)Nc4ncc(F)s4)cc3C#N)ccc2Cl)c1 [Example 531, 4-[(6-chloro-3′-methoxybiphenyl-3-yl)oxy]-3-cyano-N-(5-fluoro-1,3-thiazol-2-yl)benzenesulfonamide]
23 | 2.3 nM | Nc1cc(-c2cc(C(F)(F)F)ccc2Oc2cc(F)c(S(=O)(=O)Nc3ncns3)cc2F)ccn1 [Example 556, 4-[2-(2-aminopyridin-4-yl)-4-(trifluoromethyl)phenoxy]-2,5-difluoro-N-1,2,4-thiadiazol-5-ylbenzenesulfonamide]
24 | 490 nM | CCn1nc(C2CC2)cc1-c1ccc(Oc2ccc(S(=O)(=O)Nc3nccs3)cc2C#N)cc1 [Example 369, 3-cyano-4-[4-(3-cyclopropyl-1-ethyl-1H-pyrazol-5-yl)phenoxy]-N-1,3-thiazol-2-ylbenzenesulfonamid]
25 | 0.8 nM | Nc1cc(-c2cc(C(F)(F)F)ccc2Oc2cc(F)c(S(=O)(=O)Nc3ncns3)cc2Cl)ccn1 [Example 557, 4-[2-(2-aminopyridin-4-yl)-4-(trifluoromethyl)phenoxy]-5-chloro-2-fluoro-N-1,2,4-thiadiazol-5-ylbenzenesulfonamide]
26 | 40 nM | N#Cc1cc(S(=O)(=O)Nc2nccs2)ccc1Oc1cc(Cl)ccc1-c1ccn[nH]1 [Example 711, 4-[5-chloro-2-(1H-pyrazol-5-yl)phenoxy]-3-cyano-N-1,3-thiazol-2-ylbenzenesulfonamide]
27 | 110 nM | Cn1nccc1-c1cc(F)ccc1Oc1cc(F)c(S(=O)(=O)Nc2ncc(Cl)s2)cc1F [Example 613, N-(5-chloro-1,3-thiazol-2-yl)-2,5-difluoro-4-[4-fluoro-2-(1-methyl-1H-pyrazol-5-yl)phenoxy]benzenesulfonamide]
28 | 40 nM | Cn1nccc1-c1cc(Br)ccc1Oc1ccc(S(=O)(=O)Nc2ncns2)cc1C#N [Example 501, 4-[4-bromo-2-(1-methyl-1H-pyrazol-5-yl)phenoxy]-3-cyano-N-1,2,4-thiadiazol-5-ylbenzenesulfonamide]

Same assay, conditions: estimated IC50; hSCN9A HEK cells, PatchXpress platform; Examples 815-1040

Row | IC50 | Structure (SMILES)
29 | 14 nM | O=S1(=O)CCC(n2nccc2-c2cc(Cl)ccc2Oc2cc(F)c(S(=O)(=O)Nc3ncns3)cc2F)C1 (centres unmarked) [Example 866, 4-{4-chloro-2-[1-(1,1-dioxidotetrahydro-3-thienyl)-1H-pyrazol-5-yl]phenoxy}-2,5-difluoro-N-1,2,4-thiadiazol-5-ylbenzenesulfonamide]
30 | 140 nM | N#Cc1cc(S(=O)(=O)Nc2ncns2)ccc1Oc1ccc(Cl)cc1-c1cccc(C(=O)O)c1 [Example 1002, 5′-chloro-2′-{2-cyano-4-[(1,2,4-thiadiazol-5-ylamino)sulfonyl]phenoxy}biphenyl-3-carboxylic acid]
31 | 40 nM | N#Cc1cc(S(=O)(=O)Nc2ncns2)ccc1Oc1ccc(Cl)cc1C1CCOCC1 [Example 836, 4-[4-chloro-2-(tetrahydro-2H-pyran-4-yl)phenoxy]-3-cyano-N-1,2,4-thiadiazol-5-ylbenzenesulfonamide]
32 | 230 nM | O=S(=O)(Nc1ncns1)c1ccc(Oc2cc(F)c(Cl)cc2-c2ccnnc2)c(F)c1 [Example 930, 4-(4-chloro-5-fluoro-2-pyridazin-4-ylphenoxy)-3-fluoro-N-1,2,4-thiadiazol-5-ylbenzenesulfonamide]
33 | 31 nM | N#Cc1cc(S(=O)(=O)Nc2ncns2)ccc1Oc1cc(C(F)(F)F)ccc1-c1ccnnc1 [Example 940, 3-cyano-4-[2-pyridazin-4-yl-5-(trifluoromethyl)phenoxy]-N-1,2,4-thiadiazol-5-ylbenzenesulfonamide]
34 | >10000 nM | Cn1nccc1-c1cc(Cl)ccc1Oc1ccc(S(=O)(=O)Nc2cc[nH]n2)cc1C#N [Example 922, 4-[4-chloro-2-(1-methyl-1H-pyrazol-5-yl)phenoxy]-3-cyano-N-1H-pyrazol-3-ylbenzenesulfonamide]
35 | 1300 nM | CC(C)(C#N)c1ccc(Oc2cc(F)c(S(=O)(=O)Nc3nncs3)cc2Cl)c(-c2ccnnc2)c1 [Example 1021, 5-chloro-4-[4-(1-cyano-1-methylethyl)-2-pyridazin-4-ylphenoxy]-2-fluoro-N-1,3,4-thiadiazol-2-ylbenzenesulfonamide]
